From BindingDB's records for doi:10.1016/j.chembiol.2007.09.006 (University of Virginia At Charlottesville, 2007) come the findings set out here.

The target in the experiment is T1, Core-binding factor subunit beta (Homo sapiens, UniProt Q13951).
T1 sequence (Q13951 whole entry): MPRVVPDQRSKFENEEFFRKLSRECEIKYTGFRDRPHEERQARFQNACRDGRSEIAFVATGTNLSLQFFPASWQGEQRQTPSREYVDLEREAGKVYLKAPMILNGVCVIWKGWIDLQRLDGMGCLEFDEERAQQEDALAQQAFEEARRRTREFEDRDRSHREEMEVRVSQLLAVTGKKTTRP
The experiment is described as follows: FRET Assay. The settings on record: pH 7.5; 23 °C. How it is done: Protein concentrations were determined by UV absorption at 433 nm for Cerulean-Runt and 513 nm for Venus-CBFbeta. […] Mean values of IC50 originating from two independent measurements performed in duplicate together with the standard deviations are reported.

pIC50: −log10 of the molar value. Where only a bound is given, the exact number is not on record here.

A word on the pIC50: it is the IC50 on a negative log10 scale, so that one unit is a factor of ten. A higher pIC50 goes with a low IC50. `CCc1sc(N)nc1-c1ccc(OC)cc1` [thiazol-2-amine, 17] had a pIC50 of 5.49.

Regarding `Nc1nc(-c2ccc(C(F)(F)F)cc2)cs1` [thiazol-2-amine, 5], the pIC50 is 5.05.

Molecule `Nc1nc(-c2cccc(Cl)c2)cs1` [thiazol-2-amine, 9] showed a pIC50 of 4.92.

In the case of `Cc1cccc(-c2csc(N)n2)c1` [thiazol-2-amine, 10], the pIC50 was 3.96.

In turn, `Nc1nc(-c2ccc(Cl)cc2Cl)cs1` [thiazol-2-amine, 16] gave a pIC50 of 4.31.

Turning to `CCc1sc(N)nc1-c1cccc(C)c1` [thiazol-2-amine, 19], the pIC50 was 4.18.

For the molecule `Cc1ccccc1-c1csc(N)n1` [thiazol-2-amine, 13], the pIC50 was 5.30.

With `CCCc1sc(N)nc1-c1ccc(OC)cc1` [thiazol-2-amine, 18], the pIC50 is 4.63.

Regarding `CCOc1ccc(-c2nc(N)sc2CC)cc1` [thiazol-2-amine, 21], the pIC50 was less than 3.30.

The molecule `COc1ccc(-c2csc(N)n2)cc1OC` [thiazol-2-amine, 7] had a pIC50 of 4.39.

For the molecule `COc1cccc(-c2csc(N)n2)c1` [thiazol-2-amine, 11], the pIC50 is 4.21.

`COc1ccc(-c2csc(N)n2)cc1` [thiazol-2-amine, 6] had a pIC50 of 4.73.

Turning to `Nc1nc(-c2ccc3c(c2)OCO3)cs1` [thiazol-2-amine, 8], the pIC50 was 5.05.

In turn, `CCc1sc(N)nc1-c1ccccc1OC` [thiazol-2-amine, 20] showed a negative logarithm of the IC50 (pIC50) of 4.77.

As for `Nc1nc(-c2ccccc2Cl)cs1` [thiazol-2-amine, 14], the pIC50 is 5.96.
